The source made the active and inactive calls. The calls are words filed in the database; no cut-off is given here. Bridge positions count the residues as written; N and C are the ends. Square brackets hold non-standard residues; d marks the D form. Triazole bridges read from a SMILES are 1,4-linked. Peptide text beside a SMILES is read from it. Lys(N3) = [N-]=[N+]=NCCCC[C@H](N)C(=O)O; Orn(N3) = [N-]=[N+]=NCCC[C@H](N)C(=O)O; Hpra = C#CCC[C@H](N)C(=O)O; Pra = C#CC[C@H](N)C(=O)O; Ahx = NCCCCCC(=O)O
What was measured:
[1] = target: Pannexin-1 (Mus musculus) (UniProt Q9JIP4); assay: Inhibition of PANX1 in mouse B16-BL6 cells assessed as reduction in HOS-induced Yo-Pro-1 uptake by measuring reduction in green fluorescence at 12.5 uM preincubated for 10 mins followed by HOS solution addition and measured after 30 mins by fluorescence based analysis; format: cell-based; details: time 40.0 min
EA.hy 926 [2] = assay: Cytotoxicity against human EA.hy 926 cells at 12.5 to 100 uM incubated for 30 mins with compound in HOS solution by LDH assay; format: toxicity, cell-based; details: ea.hy 926, 0.5 h, dose 12.5-100 µM
EA.hy 926 [3] = assay: Antiinflammatory activity in TNF-alpha stimulated human EA.hy926 cells cocultured with human THP-1 cells assessed as inhibition of monocyte adhesion at 100 uM incubated for 15 mins followed by adhesion for 2 hrs; format: functional, cell-based; details: time 135.0 min
[4] = Stability in PBS at pH 7.4 assessed as conserved alpha-helical profile at 200 uM at 20 to 90 degreeC by CD spectra analysis; format: physicochemical; details: buffer, pH 7.4, 200 µM
[5] = target: Pannexin-1 (Rattus norvegicus) (UniProt P60570); assay: Inhibition of PANX1 in rat H9C2 cells assessed as reduction in HOS-induced ATP release at 12.5 to 100 uM preincubated for 10 mins followed by HOS solution addition and measured after 30 mins by bioluminescence analysis; format: cell-based; details: dose 12.5-100 µM, time 40.0 min
[6] = target: Pannexin-1 (Homo sapiens) (UniProt Q96RD7); assay: Inhibition of PANX1 in human EA.hy 926 cells assessed as reduction in HOS-induced ATP release at 12.5 to 100 uM preincubated for 10 mins followed by HOS solution addition and measured after 30 mins by bioluminescence analysis; format: cell-based; details: dose 12.5-100 µM, time 40.0 min
[7] = target: Pannexin-1 (Mus musculus) (UniProt Q9JIP4); assay: Inhibition of PANX1 in mouse B16-BL6 cells assessed as reduction in HOS-induced ATP release at around 10 nM preincubated for 10 mins followed by HOS solution addition and measured after 30 mins by bioluminescence analysis; format: cell-based; details: time 40.0 min
[8] = target: Pannexin-1 (Mus musculus) (UniProt Q9JIP4); assay: Inhibition of PANX1 in mouse B16-BL6 cells assessed as reduction in HOS-induced ATP release preincubated for 10 mins followed by HOS solution addition and measured after 30 mins by bioluminescence analysis; format: cell-based; details: dose 6.25-400 µM, time 40.0 min
B16-BL6 [9] = assay: Cytotoxicity against mouse B16-BL6 cells at 6.25 to 100 uM incubated for 30 mins with compound in HOS solution by LDH assay; format: toxicity, cell-based; details: b16-bl6, 0.5 h, dose 6.25-100 µM
[10] = target: Pannexin-1 (Mus musculus) (UniProt Q9JIP4); assay: Inhibition of PANX1 in mouse B16-BL6 cells assessed as reduction in HOS-induced ATP release at 100 uM preincubated for 10 mins followed by HOS solution addition and measured after 30 mins by bioluminescence analysis; format: cell-based; details: time 40.0 min
B16-BL6 [11] = assay: Cytotoxicity against mouse B16-BL6 cells at 1.56 to 100 uM incubated for 30 mins with compound in HOS solution by LDH assay; format: toxicity, cell-based; details: b16-bl6, 0.5 h, dose 1.56-100 µM
[12] = target: Pannexin-1 (Homo sapiens) (UniProt Q96RD7); assay: Inhibition of PANX1 in human EA.hy 926 cells assessed as reduction in HOS-induced ATP release preincubated for 10 mins followed by HOS solution addition and measured after 30 mins by bioluminescence analysis; format: cell-based; details: time 40.0 min

Sequence of Pannexin-1 (Mus musculus) (Q9JIP4 whole entry): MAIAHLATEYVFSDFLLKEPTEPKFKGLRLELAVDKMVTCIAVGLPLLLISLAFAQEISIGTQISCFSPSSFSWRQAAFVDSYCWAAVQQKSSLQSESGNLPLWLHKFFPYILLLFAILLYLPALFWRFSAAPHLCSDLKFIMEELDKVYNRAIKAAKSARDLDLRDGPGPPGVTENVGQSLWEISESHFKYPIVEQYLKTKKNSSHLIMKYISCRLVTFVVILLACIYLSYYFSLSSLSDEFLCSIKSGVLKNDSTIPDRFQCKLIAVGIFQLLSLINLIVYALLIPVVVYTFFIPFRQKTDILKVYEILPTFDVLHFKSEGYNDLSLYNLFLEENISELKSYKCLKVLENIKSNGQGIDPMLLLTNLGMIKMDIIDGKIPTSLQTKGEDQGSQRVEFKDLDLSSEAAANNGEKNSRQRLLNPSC
Sequence of Pannexin-1 (Homo sapiens) (Q96RD7 whole entry): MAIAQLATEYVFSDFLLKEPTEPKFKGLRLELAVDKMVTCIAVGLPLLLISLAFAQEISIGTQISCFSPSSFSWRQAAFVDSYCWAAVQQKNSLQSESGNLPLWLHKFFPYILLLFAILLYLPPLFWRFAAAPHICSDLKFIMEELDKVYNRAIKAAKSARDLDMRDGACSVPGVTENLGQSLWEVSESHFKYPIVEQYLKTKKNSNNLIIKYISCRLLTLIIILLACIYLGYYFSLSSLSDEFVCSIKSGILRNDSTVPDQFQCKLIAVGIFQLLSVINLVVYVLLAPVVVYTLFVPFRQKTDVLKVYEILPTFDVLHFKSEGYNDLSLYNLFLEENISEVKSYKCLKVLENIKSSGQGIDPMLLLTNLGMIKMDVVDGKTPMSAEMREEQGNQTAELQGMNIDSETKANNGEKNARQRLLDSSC
Sequence of Pannexin-1 (Rattus norvegicus) (P60570 whole entry): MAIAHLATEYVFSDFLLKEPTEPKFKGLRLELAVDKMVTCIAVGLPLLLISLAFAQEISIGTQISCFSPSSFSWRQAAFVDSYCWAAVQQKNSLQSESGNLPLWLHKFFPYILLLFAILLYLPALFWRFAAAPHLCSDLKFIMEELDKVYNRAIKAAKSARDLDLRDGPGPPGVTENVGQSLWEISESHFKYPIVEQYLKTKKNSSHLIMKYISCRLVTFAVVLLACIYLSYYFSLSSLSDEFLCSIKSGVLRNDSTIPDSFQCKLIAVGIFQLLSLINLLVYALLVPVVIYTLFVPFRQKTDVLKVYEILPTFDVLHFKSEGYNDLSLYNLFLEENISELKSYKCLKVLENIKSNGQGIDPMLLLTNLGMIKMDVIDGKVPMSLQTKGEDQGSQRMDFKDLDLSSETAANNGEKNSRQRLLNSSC

| Structure (SMILES) | inhibition [10] | Activity (B16-BL6 [11]) | further results |
| --- | --- | --- | --- |
| CC(=O)N[C@@H](CO)C(=O)N[C@@H](Cc1c[nH]c2ccccc12)C(=O)N[C@@H](CCCNC(=N)N)C(=O)N[C@@H](CCC(N)=O)C(=O)N[C@@H](C)C(=O)N[C@H]1Cc2cn(nn2)CCCC[C@@H](C(=O)N[C@@H](Cc2ccc(O)cc2)C(N)=O)NC(=O)[C@H](CC(=O)O)NC(=O)[C@H](C(C)C)NC(=O)[C@H](Cc2ccccc2)NC1=O | – | – | inhibition [1]: inactive; Activity (EA.hy 926 [2]): Non-Toxic; inhibition (EA.hy 926 [3]): Active; Stability [4]: Stable; inhibition [5]: inactive; inhibition [6]: Active; inhibition [7]: inactive; inhibition [8]: Dose-Dependent Effect; Activity (B16-BL6 [9]): Non-Toxic |
| CC(=O)N[C@H]1Cc2cn(nn2)CCCC[C@@H](C(=O)N[C@@H](C)C(=O)N[C@@H](Cc2ccccc2)C(=O)N[C@H](C(=O)N[C@@H](CC(=O)O)C(=O)N[C@@H](CO)C(=O)N[C@@H](Cc2ccc(O)cc2)C(N)=O)C(C)C)NC(=O)[C@H](CCC(N)=O)NC(=O)[C@H](CCCNC(=N)N)NC(=O)[C@H](Cc2c[nH]c3ccccc23)NC1=O | – | – | inhibition [1]: inactive; Activity (EA.hy 926 [2]): Non-Toxic; inhibition (EA.hy 926 [3]): Active; inhibition [5]: inactive; inhibition [6]: Active; inhibition [8]: Dose-Dependent Effect; Activity (B16-BL6 [9]): Non-Toxic |
| CC(=O)N[C@@H](CO)C(=O)N[C@@H](Cc1c[nH]c2ccccc12)C(=O)N[C@@H](CCCNC(=N)N)C(=O)N[C@@H](CCC(N)=O)C(=O)N[C@@H](C)C(=O)N[C@@H](C)C(=O)N[C@@H](Cc1ccccc1)C(=O)N[C@H]1Cc2cn(nn2)CCCC[C@@H](C(N)=O)NC(=O)[C@H](Cc2ccc(O)cc2)NC(=O)[C@H](CO)NC(=O)[C@H](CC(=O)O)NC1=O (Ac-SWRQAAF[Pra]DSY[Lys(N3)]-NH2; triazole 8-12) | inactive | – | – |
| CC(=O)N[C@@H](CO)C(=O)N[C@@H](Cc1c[nH]c2ccccc12)C(=O)N[C@@H](CCCNC(=N)N)C(=O)N[C@@H](CCC(N)=O)C(=O)N[C@@H](C)C(=O)N[C@H]1CCc2cn(nn2)CCCC[C@@H](C(=O)N[C@@H](Cc2ccc(O)cc2)C(N)=O)NC(=O)[C@H](CC(=O)O)NC(=O)[C@H](C(C)C)NC(=O)[C@H](Cc2ccccc2)NC1=O (Ac-SWRQA[Hpra]FVD[Lys(N3)]Y-NH2; triazole 6-10) | Active | Non-Toxic | – |
| CC(=O)N[C@@H](CO)C(=O)N[C@@H](Cc1c[nH]c2ccccc12)C(=O)N[C@@H](CCCNC(=N)N)C(=O)N[C@@H](CCC(N)=O)C(=O)N[C@@H](C)C(=O)N[C@H]1Cc2cn(nn2)CCC[C@@H](C(=O)N[C@@H](Cc2ccc(O)cc2)C(N)=O)NC(=O)[C@H](CC(=O)O)NC(=O)[C@H](C(C)C)NC(=O)[C@H](Cc2ccccc2)NC1=O (Ac-SWRQA[Pra]FVD[Orn(N3)]Y-NH2; triazole 6-10) | inactive | – | – |
| CC(=O)N[C@H]1CCCCn2cc(nn2)C[C@@H](C(=O)N[C@@H](C)C(=O)N[C@@H](Cc2ccccc2)C(=O)N[C@H](C(=O)N[C@@H](CC(=O)O)C(=O)N[C@@H](CO)C(=O)N[C@@H](Cc2ccc(O)cc2)C(N)=O)C(C)C)NC(=O)[C@H](CCC(N)=O)NC(=O)[C@H](CCCNC(=N)N)NC(=O)[C@H](Cc2c[nH]c3ccccc23)NC1=O (Ac-[Lys(N3)]WRQ[Pra]AFVDSY-NH2; triazole 1-5) | Active | Non-Toxic | – |
| CC(C)[C@H](NC(=O)[C@H](Cc1ccccc1)NC(=O)[C@H](C)NC(=O)[C@H](C)NC(=O)[C@H](CCC(N)=O)NC(=O)[C@H](CCCNC(=N)N)NC(=O)[C@H](Cc1c[nH]c2ccccc12)NC(=O)CCCCCNC(=O)[C@@H](N)CCCCN)C(=O)N[C@@H](CC(=O)O)C(=O)N[C@@H](CO)C(=O)N[C@@H](Cc1ccc(O)cc1)C(=O)O (H-K[Ahx]WRQAAFVDSY-OH) | – | – | inhibition [12]: Active |

Now from value to molecule, other results behind:

| inhibition [10] | Structure (SMILES) | Activity (B16-BL6 [11]) | further results |
| --- | --- | --- | --- |
| inactive | CC(=O)N[C@@H](CO)C(=O)N[C@@H](Cc1c[nH]c2ccccc12)C(=O)N[C@@H](CCCNC(=N)N)C(=O)N[C@@H](CCC(N)=O)C(=O)N[C@@H](C)C(=O)N[C@@H]1Cc2cn(nn2)CCCC[C@@H](C(=O)N[C@@H](Cc2ccc(O)cc2)C(N)=O)NC(=O)[C@H](CC(=O)O)NC(=O)[C@H](C(C)C)NC(=O)[C@H](Cc2ccccc2)NC1=O | Non-Toxic | – |
| inactive | CC(=O)N[C@H]1Cc2cn(nn2)CCCC[C@H](C(=O)N[C@@H](C)C(=O)N[C@@H](Cc2ccccc2)C(=O)N[C@H](C(=O)N[C@@H](CC(=O)O)C(=O)N[C@@H](CO)C(=O)N[C@@H](Cc2ccc(O)cc2)C(N)=O)C(C)C)NC(=O)[C@H](CCC(N)=O)NC(=O)[C@H](CCCNC(=N)N)NC(=O)[C@H](Cc2c[nH]c3ccccc23)NC1=O | Non-Toxic | – |
| inactive | CC(=O)N[C@@H](CO)C(=O)N[C@@H](Cc1c[nH]c2ccccc12)C(=O)N[C@@H](CCCNC(=N)N)C(=O)N[C@@H](CCC(N)=O)C(=O)N[C@@H](C)C(=O)N[C@@H](C)C(=O)N[C@@H](Cc1ccccc1)C(=O)N[C@H]1Cc2cn(nn2)CCC[C@@H](C(N)=O)NC(=O)[C@H](Cc2ccc(O)cc2)NC(=O)[C@H](CO)NC(=O)[C@H](CC(=O)O)NC1=O (Ac-SWRQAAF[Pra]DSY[Orn(N3)]-NH2; triazole 8-12) | – | – |
| inactive | CC(=O)N[C@@H](CO)C(=O)N[C@@H](Cc1c[nH]c2ccccc12)C(=O)N[C@@H](CCCNC(=N)N)C(=O)N[C@@H](CCC(N)=O)C(=O)N[C@@H](C)C(=O)N[C@@H](C)C(=O)N[C@H]1Cc2cn(nn2)CCCC[C@@H](C(=O)O)NC(=O)[C@H](CO)NC(=O)[C@H](CC(=O)O)NC(=O)[C@H](C(C)C)NC1=O (Ac-SWRQAA[Pra]VDS[Lys(N3)]-OH; triazole 7-11) | – | – |
| Active | CC(=O)N[C@@H](CO)C(=O)N[C@@H](Cc1c[nH]c2ccccc12)C(=O)N[C@@H](CCCNC(=N)N)C(=O)N[C@@H](CCC(N)=O)C(=O)N[C@@H](C)C(=O)N[C@H]1CCCCn2cc(nn2)C[C@@H](C(=O)N[C@@H](Cc2ccc(O)cc2)C(N)=O)NC(=O)[C@H](CC(=O)O)NC(=O)[C@H](C(C)C)NC(=O)[C@H](Cc2ccccc2)NC1=O (Ac-SWRQA[Lys(N3)]FVD[Pra]Y-NH2; triazole 6-10) | Non-Toxic | – |
| Active | CC(=O)N[C@H]1CCc2cn(nn2)CCCC[C@@H](C(=O)N[C@@H](C)C(=O)N[C@@H](Cc2ccccc2)C(=O)N[C@H](C(=O)N[C@@H](CC(=O)O)C(=O)N[C@@H](CO)C(=O)N[C@@H](Cc2ccc(O)cc2)C(N)=O)C(C)C)NC(=O)[C@H](CCC(N)=O)NC(=O)[C@H](CCCNC(=N)N)NC(=O)[C@H](Cc2c[nH]c3ccccc23)NC1=O (Ac-[Hpra]WRQ[Lys(N3)]AFVDSY-NH2; triazole 1-5) | Non-Toxic | – |
| inactive | CC(=O)N[C@H]1Cc2cn(nn2)CCC[C@@H](C(=O)N[C@@H](C)C(=O)N[C@@H](Cc2ccccc2)C(=O)N[C@H](C(=O)N[C@@H](CC(=O)O)C(=O)N[C@@H](CO)C(=O)N[C@@H](Cc2ccc(O)cc2)C(N)=O)C(C)C)NC(=O)[C@H](CCC(N)=O)NC(=O)[C@H](CCCNC(=N)N)NC(=O)[C@H](Cc2c[nH]c3ccccc23)NC1=O (Ac-[Pra]WRQ[Orn(N3)]AFVDSY-NH2; triazole 1-5) | – | – |
